Earlier results on 1 molecule are cited in patent publication US20060062848A1, “Formulation comprising itraconazole” (Nektar Therapeutics UK Limited, priority 2004, published 2006).

≈ marks a conversion by molar mass, not a printed value. Where two headings read alike, the source gives them in different places.

For the molecule `CCC(C)n1ncn(-c2ccc(N3CCN(c4ccc(OCC5CO[C@](Cn6cncn6)(c6ccc(Cl)cc6Cl)O5)cc4)CC3)cc2)c1=O` (mixture of isomers) [itraconazole, (±) cis-4-[4-[4-[4-[[2-(2,4-dichlorphenyl)-2-(1H-1,2,4-triazol-1-ylmethyl)-1,3-dioxolan-4-yl]methoxy]phenyl]-1-piperazinyl]phenyl]-2,4-dihydro-2-(1-methylpropyl)-3H-1,2,4-triazol-3-one], the aqueous solubility (neutral pH) was 0.001 µg/mL (≈ 0.00142 µM) and the aqueous solubility (pH 1) is 6 µg/mL (≈ 8.5 µM).
